Here are results for 7 substances from US20040110846A1, “Perylenequinones for use with immunotherapy agents” (priority 2004, published 2004).

The test system of one data set is EMT6 murine mastocytoma. In words: Sonosensitizing potential: LD50 in EMT6 cells in vitro for a fixed dose of ultrasound. Format: cell-based. From the text:
(§1) As used herein, “photopotentiation factor” refers to the property of the compound(s) to exert light- or sound-mediated toxicity in excess of its (their) inherent unactivated toxicity. In a preferred embodiment of the invention, the activation factor may be calculated as the ratio of the LD50 of cells treated without activation to the LD50 of the cells treated with an activated compound (drug LD50 divided by activated drug LD50). Where the term “LD50” has been used above, the term “IC50” may be substituted, to address the bioassays that concern metabolic activity rather than the endpoint of lethality, loss of reproductive capability, or clonogenic death. The relative photoactivation efficiency of a compound may also be determined using a clonogenic assay, an assay that is well known to those skilled in the art.
(§2) for a fixed dose of light or ultrasound

A further data set has as its system EMT6 murine. In words: Photosensitizing potential: LD50 in EMT6 cells in vitro for a fixed dose of light. The format is cell-based.
From the text: as §1, §2

The nature of data set [1]: Absorption (extinction coefficient) in the red spectral region compared with HB. The format is physicochemical. An excerpt: A hypocrellin derivative of the present invention also includes 2-butylamino-2-demethoxy-hypocrellin B (2-BA-2-DMHB). […] Compared with its parent compound HB, its absorption bands extend toward longer wavelengths. The extinction coefficient at 583 nm was 2.5-fold as much as HB at 548 nm, and at 621 nm was over 3.8-fold as much as HB at 580 nm.

With “2-(N,N-dimethyl-amino) propylamine-Hypocrellin B [HBDD-R1]”, the “Sonosensitizing Potential (Molar Concentration which exerts LD50)” value (“Sonosensitizing Potential” for short) in the data set with EMT6 murine mastocytoma is 1.0 mM.

As for “2-butylamino-2-demethoxy-Hypocrellin B [DMHBb]”, the “Photosensitizing Potential (Molar Concentration which exerts LD50)” value (from here on “Photosensitizing Potential”) with EMT6 murine was found to be 0.1 µM. In addition, the “Sonosensitizing Potential” value in the data set with EMT6 murine mastocytoma stood at 0.1 mM. Also, the “extinction coefficient at 583 nm relative to HB at 548 nm” value in data set [1] (583 nm vs HB at 548 nm) was determined as 2.5 fold. The “extinction coefficient at 621 nm relative to HB at 580 nm” value in data set [1] (621 nm vs HB at 580 nm) was “over 3.8 fold”.

With 2-morpholino-ethylaminated HB [HBAM-R1], the “Photosensitizing Potential” value with EMT6 murine turned out to be 4.0 µM. Besides, in the data set on EMT6 murine mastocytoma, the “Sonosensitizing Potential” value was “None”.

On to Demethylated-HB [DMHBa], for which the “Photosensitizing Potential” value with EMT6 murine was 3.0 µM. Besides, the “Sonosensitizing Potential” value with EMT6 murine mastocytoma came to 1.0 mM.

On to Ethylenediamne-Hypocrellin B [HBED-R2], for which the “Photosensitizing Potential” value in the data set on EMT6 murine was 4.0 µM. In the data set with EMT6 murine mastocytoma, the “Sonosensitizing Potential” value is on record as “None”.

As to Hypocrellin A [HA, reference compound], in the data set with EMT6 murine, the “Photosensitizing Potential” value was determined as 4.0 µM. Also, in the data set on EMT6 murine mastocytoma, the “Sonosensitizing Potential” value is “None”.

On to Methylamine-Hypocrellin B [HBMA-IV], for which, in the data set with EMT6 murine, the “Photosensitizing Potential” value was 1.0 µM. The “Sonosensitizing Potential” value in the data set on EMT6 murine mastocytoma is reported as “None”.
